Test system: non-vasculogenic impotent patients
Assay: Dose Evaluation Study: clinical response to sublingual apomorphine tablets before intercourse
Conditions: for Positive Responses % / Positive Responses No.: 20 days
[1] = 3 mg tablet 20 minutes prior to intercourse, 5 patients
[2] = 4 mg tablet 20 minutes prior to intercourse, 5 patients
[3] = 5 mg tablet 20 minutes prior to intercourse, 10 patients
[4] = 6 mg tablet 20 minutes prior to intercourse, 10 patients
[5] = 7 mg tablet 20 minutes prior to intercourse, 10 patients
[6] = 8 mg tablet 20 minutes prior to intercourse, 10 patients
[7] = 10 mg tablet 20 minutes prior to intercourse, 10 patients

In the case of CN1CCc2cccc3c2[C@H]1Cc1ccc(O)c(O)c1-3 [apomorphine], the “Positive Responses %” value [1] is reported as 0%, the “Positive Responses No.” value [1] is reported as 0 and the Nausea % (3 mg tablet, 5 patients) is reported as 0%. For the same molecule, the “Nausea No.” value (3 mg tablet, 5 patients) was 0, the Vomiting % (3 mg tablet, 5 patients) was 0% and the “Vomiting No.” value (3 mg tablet, 5 patients) was 0. The “Positive Responses %” value [2] was 40%, the “Positive Responses No.” value [2] was 2 and the Nausea % (4 mg tablet, 5 patients) was 20%. For the same molecule, the “Nausea No.” value (4 mg tablet, 5 patients) was 1, the Vomiting % (4 mg tablet, 5 patients) was 20% and the “Vomiting No.” value (4 mg tablet, 5 patients) was 1. For the same molecule, the “Positive Responses %” value [3] was 50%, the “Positive Responses No.” value [3] was 5 and the Nausea % (5 mg tablet, 10 patients) was 20%. The “Nausea No.” value (5 mg tablet, 10 patients) was 2, the Vomiting % (5 mg tablet, 10 patients) was 10% and the “Vomiting No.” value (5 mg tablet, 10 patients) was 1. For the same molecule, the “Positive Responses %” value [4] was 70%, the “Positive Responses No.” value [4] was 7 and the Nausea % (6 mg tablet, 10 patients) was 20%. For the same molecule, the “Nausea No.” value (6 mg tablet, 10 patients) was 2, the Vomiting % (6 mg tablet, 10 patients) was 20% and the “Vomiting No.” value (6 mg tablet, 10 patients) was 2. For the same molecule, the “Positive Responses %” value [5] was 70%, the “Positive Responses No.” value [5] was 7 and the Nausea % (7 mg tablet, 10 patients) was 20%. The “Nausea No.” value (7 mg tablet, 10 patients) was 2, the Vomiting % (7 mg tablet, 10 patients) was 20% and the “Vomiting No.” value (7 mg tablet, 10 patients) was 2. The “Positive Responses %” value [6] was 70%, the “Positive Responses No.” value [6] was 7 and the Nausea % (8 mg tablet, 10 patients) was 30%. The “Nausea No.” value (8 mg tablet, 10 patients) was 3, the Vomiting % (8 mg tablet, 10 patients) was 30% and the “Vomiting No.” value (8 mg tablet, 10 patients) was 3. For the same molecule, the “Positive Responses %” value [7] was 80%, the “Positive Responses No.” value [7] was 8 and the Nausea % (10 mg tablet, 10 patients) was 40%. The “Nausea No.” value (10 mg tablet, 10 patients) was 4, the Vomiting % (10 mg tablet, 10 patients) was 40% and the “Vomiting No.” value (10 mg tablet, 10 patients) was 4.
